# Assays:
# α-amylase [1] = biological target: T1, α-amylase (Sus scrofa, UniProt P00690); assay: Mode of α-AMY inhibition (reversibility, Lineweaver–Burk kinetics); format: biochemical
# T1 sequence (P00690 16-511): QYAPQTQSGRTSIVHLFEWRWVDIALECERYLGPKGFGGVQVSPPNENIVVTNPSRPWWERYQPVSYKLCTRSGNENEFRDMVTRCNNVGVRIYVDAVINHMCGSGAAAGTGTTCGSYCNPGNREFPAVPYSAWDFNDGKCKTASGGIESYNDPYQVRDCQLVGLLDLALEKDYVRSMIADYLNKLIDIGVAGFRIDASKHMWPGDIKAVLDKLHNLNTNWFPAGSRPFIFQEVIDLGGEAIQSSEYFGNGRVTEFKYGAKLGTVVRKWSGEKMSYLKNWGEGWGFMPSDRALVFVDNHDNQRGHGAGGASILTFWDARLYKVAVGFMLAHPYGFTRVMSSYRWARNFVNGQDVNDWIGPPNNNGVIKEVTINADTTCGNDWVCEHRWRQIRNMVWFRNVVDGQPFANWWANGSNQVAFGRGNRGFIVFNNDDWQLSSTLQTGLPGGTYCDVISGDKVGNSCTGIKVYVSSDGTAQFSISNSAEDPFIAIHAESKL
# Source text: In the experiment, the concentration of the fixed substrate Gal-G2-α-CNP/pNPG solution was 5 mmol/L, and the concentrations of the two enzymes (100, 200, 300, 400 U/L) were used to determine the effect of different concentrations of porphyrins on enzyme activity. The concentration of the enzyme was 200 U/L, and the concentration of the substrate Gal-G2-α-CNP/pNPG solution (2.5, 5, 7.5, 10 mmol/L) was used to determine the effect of different concentrations of porphyrins on the enzyme-catalyzed substrate activity.
# Upon identifying the type of inhibition, the kinetic equations vary for different inhibition types.
# In the formula, v, Vmax, Km, Ki, and Kis represent the reaction rate, maximum reaction rate, Michaelis constant, and free enzyme inhibition constant, respectively, and the binding enzyme inhibition constant. [S] denotes the substrate concentration. [I] denotes the inhibitor concentration.
# α-amylase [2] = biological target: T1, α-amylase; assay: Fluorescence quenching, binding and thermodynamics with α-amylase
# Source text: In the α-amylase experiment, a series of porphyrins and amylase (200 U/L) were mixed in a volume ratio of 1:1.
# (§1) The Stern–Volmer equation [35] was adopted to determine the quenching mechanisms between six porphyrin compounds and both enzymes in the experimental group, with Formula (6):(6) F0/F=1+Ksv[Q]=1+Kqτ0[Q]
# (§2) The Stern–Volmer equation was adapted based on experimental data to more accurately characterize the quenching behavior [36], with Formula (7):(7) F0/F=e^Ksv[Q]=e^Kqτ0[Q]
# (§3) In the formula, the fluorescence quenching ratio was calculated as F0/F, where F0 corresponds to the emission intensity of pure α-amylase solution (control) and F denotes the intensity measured after the incremental addition of porphyrin ligands. KSV and Kq denote the Stern–Volmer quenching constant and the bimolecular quenching rate constant, respectively, τ0 (10^−8 s) is the average fluorescence lifetime of the fluorophore in the absence of quencher, and [Q] indicates the concentration of porphyrin compounds.
# (§4) Due to the presence of an internal filtration effect, a decrease in the fluorescence intensity of the system may occur. Therefore, all fluorescence data were corrected using Formula (8) to eliminate the internal filtration effect.(8) Fcor=Fobse^(Aex+Aem)/2
# (§5) The evaluation of the interaction forces between porphyrin compounds and the two enzymes can be achieved by calculating thermodynamic parameters. When both ΔH^0 and ΔS^0 are positive, the predominant interaction force is hydrophobic. When both ΔH^0 and ΔS^0 are negative, the main forces are hydrogen bonding and van der Waals forces. When ΔH^0 < 0 and ΔS^0 > 0, the primary interaction is electrostatic attraction.
# (§6) The thermodynamic parameters were calculated using Formulas (9) and (10), and then the Van’t Hoff plot for the interactions between the porphyrin compounds and the two enzymes was generated by plotting lnKa on the Y-axis versus 1/T on the X-axis.(9) lnKa=−ΔH^0/RT+ΔS^0/R (10) ΔG^0=ΔH^0−TΔS^0=−RTlnKa
# α-glucosidase [3] = biological target: T2, α-glucosidase (Saccharomyces cerevisiae, UniProt P53341); assay: Fluorescence quenching, binding and thermodynamics with α-glucosidase
# T2 sequence (P53341 whole entry): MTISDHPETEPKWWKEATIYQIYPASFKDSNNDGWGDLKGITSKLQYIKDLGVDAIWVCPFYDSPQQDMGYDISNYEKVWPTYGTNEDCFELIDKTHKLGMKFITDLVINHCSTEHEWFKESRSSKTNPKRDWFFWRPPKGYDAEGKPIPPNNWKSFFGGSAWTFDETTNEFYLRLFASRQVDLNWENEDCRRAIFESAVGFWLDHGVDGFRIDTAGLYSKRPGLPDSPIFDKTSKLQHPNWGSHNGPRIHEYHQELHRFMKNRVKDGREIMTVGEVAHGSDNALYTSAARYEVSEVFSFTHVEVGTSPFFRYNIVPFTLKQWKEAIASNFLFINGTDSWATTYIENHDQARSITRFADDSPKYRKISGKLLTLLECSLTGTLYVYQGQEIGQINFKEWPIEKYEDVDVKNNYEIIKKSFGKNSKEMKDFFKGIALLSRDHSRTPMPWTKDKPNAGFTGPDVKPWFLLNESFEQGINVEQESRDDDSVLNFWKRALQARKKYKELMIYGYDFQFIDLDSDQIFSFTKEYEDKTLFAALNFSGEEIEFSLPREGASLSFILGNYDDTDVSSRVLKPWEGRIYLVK
# Method: In the α-amylase experiment, a series of porphyrins and amylase (200 U/L) were mixed in a volume ratio of 1:1. In the α-glucosidase experiment, the glucosidase concentration was 400 U/L, mixed in a volume ratio of 1:1; the samples were maintained at three different temperatures (298, 304, and 310 K) for 30 min, with excitation at 280 nm and emission scanning from 300 to 500 nm.
# as §1, §2, §3, §4, §5, §6
# α-amylase [4] = biological target: T1, α-amylase; assay: FTIR secondary structure analysis of α-AMY complexes; conditions: enzyme–porphyrin molar ratio 1:2, amide I band
# Source text: (§7) A molar ratio of 1:2 (α-amylase/α-glucosidase)–porphyrin solution was placed in a cryocentrifugal concentrator and the dried solid sample was mixed with dry KBr and measured using a Nicolet IS-50 FTIR Spectrometer (ThermoFisher, Waltham, MA, USA) with a scanning range of 4000–400 cm^−1 and a resolution of 4 cm^−1. The overlapping peaks in the amide I band (1700–1600 cm^−1) were further analyzed into multiple feature sub-peaks, and quantitative analysis of the relative content of various secondary structures in proteins using curve fitting methods was performed.
# α-glucosidase [5] = biological target: T2, α-glucosidase; assay: FTIR secondary structure analysis of α-GLU complexes; conditions: enzyme–porphyrin molar ratio 1:2, amide I band
# Source text: as §7
smiles,measurement,setting,value
O=C(O)c1ccc(-c2c3nc(c(-c4ccc(C(=O)O)cc4)c4ccc([nH]4)c(-c4ccc(C(=O)O)cc4)c4nc(c(-c5ccc(C(=O)O)cc5)c5ccc2[nH]5)C=C4)C=C3)cc1 [TCPP],Vmax,α-amylase [1]; C 25 μg/mL,0.1046 ± 0.0025 ΔOD/min
same,Vmax,α-amylase [1]; C 50 μg/mL,0.0872 ± 0.0014 ΔOD/min
same,Vmax,α-amylase [1]; C 100 μg/mL,0.0709 ± 0.0018 ΔOD/min
same,Vmax,α-amylase [1]; C 150 μg/mL,0.0583 ± 0.0021 ΔOD/min
same,Vmax,α-amylase [1]; C 200 μg/mL,0.0496 ± 0.0007 ΔOD/min
same,type of inhibition of α-amylase,α-amylase [1]; Lineweaver–Burk plots,mixed type
same,reversibility of inhibition of α-amylase,"α-amylase [1]; enzyme 100–400 U/L, substrate 5 mmol/L",reversible inhibition
same,Kis,α-amylase [1]; enzyme–substrate complex inhibition constant,132.4382 ± 0.1403 µg/mL
same,quenching mechanism of α-amylase fluorescence,"α-amylase [2]; Stern–Volmer plots, 298–310 K",pure static quenching
same,Kq,α-amylase [2]; T 298 K,4.04 ± 0.01 ×10^12 L/mol/s
same,Ksv,α-amylase [2]; T 298 K,4.04 ± 0.01 ×10^4 L/mol
same,n (number of binding sites),α-amylase [2]; T 298 K,1.36
same,ΔG^0,α-amylase [2]; T 298 K,-8.315 ± 0.022 kcal/mol
same,Kq,α-amylase [2]; T 304 K,3.55 ± 0.08 ×10^12 L/mol/s
same,Ksv,α-amylase [2]; T 304 K,3.55 ± 0.08 ×10^4 L/mol
same,n (number of binding sites),α-amylase [2]; T 304 K,1.28
same,ΔG^0,α-amylase [2]; T 304 K,-7.928 ± 0.017 kcal/mol
same,Kq,α-amylase [2]; T 310 K,3.01 ± 0.07 ×10^12 L/mol/s
same,Ksv,α-amylase [2]; T 310 K,3.01 ± 0.07 ×10^4 L/mol
same,n (number of binding sites),α-amylase [2]; T 310 K,1.20
same,ΔG^0,α-amylase [2]; T 310 K,-7.572 ± 0.017 kcal/mol
same,ΔH^0,"α-amylase [2]; Van’t Hoff, 298–310 K",-26.778 ± 0.014 kcal/mol
same,ΔS^0,"α-amylase [2]; Van’t Hoff, 298–310 K",−259.31 ± 0.09 J/mol/k
same,binding constants K,α-glucosidase [3]; 310 K,(0.97 ± 0.02) × 10^5 L·mol^−1
same,quenching mechanism of α-glucosidase fluorescence,"α-glucosidase [3]; Stern–Volmer plots, 298–310 K",static quenching
same,Kq,α-glucosidase [3]; T 298 K,7.45 ± 0.04 ×10^12 L/mol/s
same,Ksv,α-glucosidase [3]; T 298 K,7.45 ± 0.04 ×10^4 L/mol
same,n (number of binding sites),α-glucosidase [3]; T 298 K,1.30
same,ΔG^0,α-glucosidase [3]; T 298 K,-8.368 ± 0.014 kcal/mol
same,Kq,α-glucosidase [3]; T 304 K,4.90 ± 0.02 ×10^12 L/mol/s
same,Ksv,α-glucosidase [3]; T 304 K,4.90 ± 0.02 ×10^4 L/mol
same,n (number of binding sites),α-glucosidase [3]; T 304 K,1.19
same,ΔG^0,α-glucosidase [3]; T 304 K,-7.651 ± 0.017 kcal/mol
same,Kq,α-glucosidase [3]; T 310 K,4.22 ± 0.09 ×10^12 L/mol/s
same,Ksv,α-glucosidase [3]; T 310 K,4.22 ± 0.09 ×10^4 L/mol
same,n (number of binding sites),α-glucosidase [3]; T 310 K,1.07
same,ΔG^0,α-glucosidase [3]; T 310 K,-7.075 ± 0.012 kcal/mol
same,ΔH^0,"α-glucosidase [3]; Van’t Hoff, 298–310 K",-40.504 ± 0.0239 kcal/mol
same,ΔS^0,"α-glucosidase [3]; Van’t Hoff, 298–310 K",−451.52 ± 0.12 J/mol/k
same,Random Coil,α-amylase [4],19.84 ± 0.06%
same,α-Helix,α-amylase [4],10.24 ± 0.02%
same,β-Antiparallel,α-amylase [4],11.75 ± 0.03%
same,β-Sheet,α-amylase [4],18.51 ± 0.05%
same,β-Turn,α-amylase [4],39.66 ± 0.09%
same,Random Coil,α-glucosidase [5],22.15 ± 0.04%
same,α-Helix,α-glucosidase [5],22.71 ± 0.05%
same,β-Antiparallel,α-glucosidase [5],9.57 ± 0.02%
same,β-Sheet,α-glucosidase [5],12.03 ± 0.02%
same,β-Turn,α-glucosidase [5],33.54 ± 0.07%
